Measurements published in patent US20220378706A1, “PHARMACEUTICAL COMPOSITION COMPRISING PDE9 INHIBITOR” (Eisai R&D Management Co., Ltd., priority 2017, published 2022).
Read-outs that look alike come from different tables or passages of the source.

Experiment: Multiple ascending dose study: plasma pharmacokinetics
Format: in vivo
Settings: human, po; for Tmax: read-out: tmax Median
Method: Four sequential cohorts of healthy participants (≥50 years and ≤85 years old) were treated with multiple ascending doses of Compound A up to the maximum tolerated dose (MTD). A total of 6 participants per cohort were randomized to Compound A. Proposed doses of Compound A were:
Participants received Compound A capsules, orally once daily (QD) on Days 1 to 14 after an overnight fast of at least 10 hours. Compound A was administered orally with 240 milliliter (mL) (8 fluid ounces) of water.
1) Maximum drug concentration (Cmax) [Time Frame: Day 1 and Day 14]
Blood samples were collected on Day 1 at predose and postdose 0.5 (30 minutes), 1, 1.5, 2, 3, 4, 5, 6, 8, 12, and 18 hours; Day 14 (at predose and postdose 0.5, 1, 1.5, 2, 3, 4, 5, 6, 8, 12, and 18 hours); and Day 15 (24 hours postdose from Day 14).
2) Mean time to reach maximum (peak) drug concentration (tmax) [Time Frame: Day 1 and Day 14]
4) Mean area under the concentration-time curve from zero time extrapolated to infinity (AUC(0-inf)) [Time Frame: Day 14]

## COc1ncc(C)c(-c2ccc3c(c2)[nH]c(=O)c2cnn([C@H]4CCOC4)c23)c1C [Compound A, (S)-7-(2-methoxy-3,5-dimethylpyridin-4-yl)-1-(tetrahydrofuran-3-yl)-1H-pyrazolo[4,3-c]quin olin-4(5H)-one]
5 mg, Day 1, 5 mg QD oral, read-out: AUC(0-24 h) GM (% CV)
  AUC(0-t): 344 ng·h/mL
5 mg, Day 1, 5 mg QD oral, read-out: AUC(0-24 h) Mean (SD)
  AUC(0-t): 352 ng·h/mL
5 mg, Day 1, 5 mg QD oral, read-out: AUC(0-24 h) Median
  AUC(0-t): 340 ng·h/mL
5 mg, Day 1, 5 mg QD oral, read-out: Cmax GM (% CV)
  Cmax: 26.3 ng/mL
5 mg, Day 1, 5 mg QD oral, read-out: Cmax Mean (SD)
  Cmax: 27.4 ng/mL
5 mg, Day 1, 5 mg QD oral, read-out: Cmax Median
  Cmax: 26.6 ng/mL
5 mg, Day 1, 5 mg QD oral
  Tmax: 4 h
5 mg, Day 14, 5 mg QD oral, read-out: AUC(0-24 h) GM (% CV)
  AUC(0-t): 844 ng·h/mL
5 mg, Day 14, 5 mg QD oral, read-out: AUC(0-24 h) Mean (SD)
  AUC(0-t): 864 ng·h/mL
5 mg, Day 14, 5 mg QD oral, read-out: AUC(0-24 h) Median
  AUC(0-t): 773 ng·h/mL
5 mg, Day 14, 5 mg QD oral, read-out: AUC(0-inf) GM (% CV)
  AUC(0-inf): 2380 ng·h/mL
5 mg, Day 14, 5 mg QD oral, read-out: AUC(0-inf) Mean (SD)
  AUC(0-inf): 2480 ng·h/mL
5 mg, Day 14, 5 mg QD oral, read-out: AUC(0-inf) Median
  AUC(0-inf): 2510 ng·h/mL
5 mg, Day 14, 5 mg QD oral, read-out: Cmax GM (% CV)
  Cmax: 58.6 ng/mL
5 mg, Day 14, 5 mg QD oral, read-out: Cmax Mean (SD)
  Cmax: 61.7 ng/mL
5 mg, Day 14, 5 mg QD oral, read-out: Cmax Median
  Cmax: 49.4 ng/mL
5 mg, Day 14, 5 mg QD oral
  Tmax: 4 h
10 mg, Day 1, 10 mg QD oral, read-out: AUC(0-24 h) GM (% CV)
  AUC(0-t): 781 ng·h/mL
10 mg, Day 1, 10 mg QD oral, read-out: AUC(0-24 h) Mean (SD)
  AUC(0-t): 784 ng·h/mL
10 mg, Day 1, 10 mg QD oral, read-out: AUC(0-24 h) Median
  AUC(0-t): 735 ng·h/mL
10 mg, Day 1, 10 mg QD oral, read-out: Cmax GM (% CV)
  Cmax: 65.5 ng/mL
10 mg, Day 1, 10 mg QD oral, read-out: Cmax Mean (SD)
  Cmax: 66.2 ng/mL
10 mg, Day 1, 10 mg QD oral, read-out: Cmax Median
  Cmax: 65.8 ng/mL
10 mg, Day 1, 10 mg QD oral
  Tmax: 2 h
10 mg, Day 14, 10 mg QD oral, read-out: AUC(0-24 h) GM (% CV)
  AUC(0-t): 1900 ng·h/mL
10 mg, Day 14, 10 mg QD oral, read-out: AUC(0-24 h) Mean (SD)
  AUC(0-t): 1940 ng·h/mL
10 mg, Day 14, 10 mg QD oral, read-out: AUC(0-24 h) Median
  AUC(0-t): 1980 ng·h/mL
10 mg, Day 14, 10 mg QD oral, read-out: AUC(0-inf) GM (% CV)
  AUC(0-inf): 5100 ng·h/mL
10 mg, Day 14, 10 mg QD oral, read-out: AUC(0-inf) Mean (SD)
  AUC(0-inf): 5260 ng·h/mL
10 mg, Day 14, 10 mg QD oral, read-out: AUC(0-inf) Median
  AUC(0-inf): 5360 ng·h/mL
10 mg, Day 14, 10 mg QD oral, read-out: Cmax GM (% CV)
  Cmax: 135 ng/mL
10 mg, Day 14, 10 mg QD oral, read-out: Cmax Mean (SD)
  Cmax: 137 ng/mL
10 mg, Day 14, 10 mg QD oral, read-out: Cmax Median
  Cmax: 144 ng/mL
10 mg, Day 14, 10 mg QD oral
  Tmax: 1.5 h
25 mg, Day 1, 25 mg QD oral, read-out: AUC(0-24 h) GM (% CV)
  AUC(0-t): 1650 ng·h/mL
25 mg, Day 1, 25 mg QD oral, read-out: AUC(0-24 h) Mean (SD)
  AUC(0-t): 1670 ng·h/mL
25 mg, Day 1, 25 mg QD oral, read-out: AUC(0-24 h) Median
  AUC(0-t): 1700 ng·h/mL
25 mg, Day 1, 25 mg QD oral, read-out: Cmax GM (% CV)
  Cmax: 125 ng/mL
25 mg, Day 1, 25 mg QD oral, read-out: Cmax Mean (SD)
  Cmax: 129 ng/mL
25 mg, Day 1, 25 mg QD oral, read-out: Cmax Median
  Cmax: 136 ng/mL
25 mg, Day 1, 25 mg QD oral
  Tmax: 3.01 h
25 mg, Day 14, 25 mg QD oral, read-out: AUC(0-24 h) GM (% CV)
  AUC(0-t): 5140 ng·h/mL
25 mg, Day 14, 25 mg QD oral, read-out: AUC(0-24 h) Mean (SD)
  AUC(0-t): 5210 ng·h/mL
25 mg, Day 14, 25 mg QD oral, read-out: AUC(0-24 h) Median
  AUC(0-t): 4760 ng·h/mL
25 mg, Day 14, 25 mg QD oral, read-out: AUC(0-inf) GM (% CV)
  AUC(0-inf): 15400 ng·h/mL
25 mg, Day 14, 25 mg QD oral, read-out: AUC(0-inf) Mean (SD)
  AUC(0-inf): 16200 ng·h/mL
25 mg, Day 14, 25 mg QD oral, read-out: AUC(0-inf) Median
  AUC(0-inf): 14000 ng·h/mL
25 mg, Day 14, 25 mg QD oral, read-out: Cmax GM (% CV)
  Cmax: 332 ng/mL
25 mg, Day 14, 25 mg QD oral, read-out: Cmax Mean (SD)
  Cmax: 336 ng/mL
25 mg, Day 14, 25 mg QD oral, read-out: Cmax Median
  Cmax: 318 ng/mL
25 mg, Day 14, 25 mg QD oral
  Tmax: 3 h
50 mg, Day 1, 50 mg QD oral, read-out: AUC(0-24 h) GM (% CV)
  AUC(0-t): 2970 ng·h/mL
50 mg, Day 1, 50 mg QD oral, read-out: AUC(0-24 h) Mean (SD)
  AUC(0-t): 3110 ng·h/mL
50 mg, Day 1, 50 mg QD oral, read-out: AUC(0-24 h) Median
  AUC(0-t): 3060 ng·h/mL
50 mg, Day 1, 50 mg QD oral, read-out: Cmax GM (% CV)
  Cmax: 214 ng/mL
50 mg, Day 1, 50 mg QD oral, read-out: Cmax Mean (SD)
  Cmax: 237 ng/mL
50 mg, Day 1, 50 mg QD oral, read-out: Cmax Median
  Cmax: 226 ng/mL
50 mg, Day 1, 50 mg QD oral
  Tmax: 3.53 h
50 mg, Day 14, 50 mg QD oral, read-out: AUC(0-24 h) GM (% CV)
  AUC(0-t): 11500 ng·h/mL
50 mg, Day 14, 50 mg QD oral, read-out: AUC(0-24 h) Mean (SD)
  AUC(0-t): 11800 ng·h/mL
50 mg, Day 14, 50 mg QD oral, read-out: AUC(0-24 h) Median
  AUC(0-t): 10900 ng·h/mL
50 mg, Day 14, 50 mg QD oral, read-out: AUC(0-inf) GM (% CV)
  AUC(0-inf): 38600 ng·h/mL
50 mg, Day 14, 50 mg QD oral, read-out: AUC(0-inf) Mean (SD)
  AUC(0-inf): 40700 ng·h/mL
50 mg, Day 14, 50 mg QD oral, read-out: AUC(0-inf) Median
  AUC(0-inf): 38100 ng·h/mL
50 mg, Day 14, 50 mg QD oral, read-out: Cmax GM (% CV)
  Cmax: 778 ng/mL
50 mg, Day 14, 50 mg QD oral, read-out: Cmax Mean (SD)
  Cmax: 788 ng/mL
50 mg, Day 14, 50 mg QD oral, read-out: Cmax Median
  Cmax: 807 ng/mL
50 mg, Day 14, 50 mg QD oral
  Tmax: 1.5 h
50 mg, Part C, 50 mg oral, read-out: AUC (0-24 h) GM (% CV)
  AUC(0-t): 10500 ng·h/mL
50 mg, Part C, 50 mg oral, read-out: AUC (0-24 h) Mean (SD)
  AUC(0-t): 10800 ng·h/mL
50 mg, Part C, 50 mg oral, read-out: AUC (0-24 h) Median
  AUC(0-t): 10600 ng·h/mL
